Laboratory results: patent US10017527B2, “KLK4 inhibitors” (Universiteit Antwerpen, priority 2014, dated 2018)

Columns and labels:
Assay type in all cases: biochemical
KLK4 [1] = molecular target: T1, KLK4 (Homo sapiens, UniProt Q9Y5K2); experiment: KLK4 enzymatic inhibition, fluorogenic substrate Boc-Val-Pro-Arg-AMC; details: 15 min pre-incubation at 37° C., Tris buffer pH 8.3; read-out: IC50 KLK4
T1 construct: purchased Viktor Magdolen (TUM), supplied by an academic laboratory

KLK4 [2] = molecular target: T1, KLK4; experiment: KLK4 inactivation kinetics from progress curves (kobs vs inhibitor concentration); details: for kapp KLK4: apparent second-order rate constant, substrate 250 μM; for Irreversible (KLK4): irreversible binding to KLK4, Yes/No
Summary of the method: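 Enzyme was added at time zero to inhibitor plus substrate (250 μM final), and aminomethylcoumarine absorbance was followed under pseudo-first-order conditions ([I]0>>[E]0) with under 10% substrate conversion. Progress curves were fitted to the integrated rate equation to give kobs. kapp is the slope of kobs versus [I]0 and depends on substrate concentration.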

uPA (recombinant) = molecular target: T2, uPA (recombinant) (Homo sapiens, UniProt P00749); experiment: uPA inhibition, chromogenic substrate Biophen CS-61(44); details: Tris buffer pH 8.8; read-out: IC50 uPA
T2 construct: purchased Nodia

Plasmine (human plasma) = molecular target: T3, Plasmine (human plasma) (Homo sapiens, UniProt P00747); experiment: Plasmin inhibition, chromogenic substrate Biophen CS-21(66); details: Plasmin; Tris buffer pH 7.4; read-out: IC50 PLM
T3 construct: purchased Sigma-Aldrich; host or cells: human plasma
T3 sequence (P00747 581-810 limits assumed): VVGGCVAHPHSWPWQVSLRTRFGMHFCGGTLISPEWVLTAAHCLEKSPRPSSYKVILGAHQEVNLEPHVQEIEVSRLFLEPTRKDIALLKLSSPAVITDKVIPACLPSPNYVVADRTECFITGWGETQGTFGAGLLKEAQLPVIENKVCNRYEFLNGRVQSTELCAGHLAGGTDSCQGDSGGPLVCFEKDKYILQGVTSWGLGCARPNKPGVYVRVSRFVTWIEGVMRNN
T3 sequence (P00747 98-580 partner limits assumed): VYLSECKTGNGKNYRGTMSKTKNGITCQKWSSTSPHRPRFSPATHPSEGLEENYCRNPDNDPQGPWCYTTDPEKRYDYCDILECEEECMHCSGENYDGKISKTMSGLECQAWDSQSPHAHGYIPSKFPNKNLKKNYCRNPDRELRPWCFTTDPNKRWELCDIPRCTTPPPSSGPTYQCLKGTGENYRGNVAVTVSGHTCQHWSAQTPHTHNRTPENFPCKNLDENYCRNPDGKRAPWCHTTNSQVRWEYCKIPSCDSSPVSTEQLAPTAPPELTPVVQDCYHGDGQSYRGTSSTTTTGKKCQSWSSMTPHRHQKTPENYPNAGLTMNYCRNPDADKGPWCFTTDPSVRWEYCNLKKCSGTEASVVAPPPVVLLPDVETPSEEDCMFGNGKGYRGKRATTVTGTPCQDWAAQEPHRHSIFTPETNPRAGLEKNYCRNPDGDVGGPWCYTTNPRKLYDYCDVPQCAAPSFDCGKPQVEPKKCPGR
Source text: (§1) The IC50 values For KLK1, KLK2 and KLK8 were obtained in a similar way. For plasmin, tPA, thrombin, Fxa, HNE, Plasma kallikrein Chromogenic substrates were used (absorption: 405 nm). (KLK2, KLK4, KLK8 were supplied by Viktor Magdolen TUMunich (TUM)).

PlasmaKLK (human plasma) = molecular target: T4, PlasmaKLK (human plasma) (Homo sapiens, UniProt P03952); experiment: Plasma kallikrein inhibition, chromogenic substrate Biophen CS-31(02); details: Plasma KLK; Tris buffer pH 7.8; read-out: IC50 pKLK
T4 construct: purchased Sigma-Aldrich; host or cells: human plasma
T4 sequence (P03952 391-638 limits assumed): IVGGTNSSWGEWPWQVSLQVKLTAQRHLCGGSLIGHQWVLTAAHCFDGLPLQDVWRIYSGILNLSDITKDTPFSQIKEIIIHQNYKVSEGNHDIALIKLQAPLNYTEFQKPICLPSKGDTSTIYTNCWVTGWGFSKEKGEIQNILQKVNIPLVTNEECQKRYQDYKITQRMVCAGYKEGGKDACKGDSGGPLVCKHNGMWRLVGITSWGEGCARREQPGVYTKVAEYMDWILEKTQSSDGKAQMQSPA
T4 sequence (P03952 20-390 partner limits assumed): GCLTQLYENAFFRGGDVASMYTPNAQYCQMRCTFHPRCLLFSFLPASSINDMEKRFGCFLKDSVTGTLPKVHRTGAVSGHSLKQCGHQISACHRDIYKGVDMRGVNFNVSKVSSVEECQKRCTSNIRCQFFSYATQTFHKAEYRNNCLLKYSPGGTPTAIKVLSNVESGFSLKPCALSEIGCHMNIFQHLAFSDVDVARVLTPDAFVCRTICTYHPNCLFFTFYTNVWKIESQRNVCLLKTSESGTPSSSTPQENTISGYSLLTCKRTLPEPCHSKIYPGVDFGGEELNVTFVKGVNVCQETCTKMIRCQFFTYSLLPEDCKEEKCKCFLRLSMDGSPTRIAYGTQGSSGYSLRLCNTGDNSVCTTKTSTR
Source text: as §1

[3] = molecular target: T5, Neurtophil Elastase(human) (Homo sapiens, UniProt P08246); experiment: Neutrophil elastase inhibition, chromogenic substrate MeOSuc-Ala-Ala-Pro-Val-pNA; details: Tris buffer pH 7.8; read-out: IC50 HNE
T5 construct: purchased Enzo-life sciences
T5 sequence (P08246 30-267): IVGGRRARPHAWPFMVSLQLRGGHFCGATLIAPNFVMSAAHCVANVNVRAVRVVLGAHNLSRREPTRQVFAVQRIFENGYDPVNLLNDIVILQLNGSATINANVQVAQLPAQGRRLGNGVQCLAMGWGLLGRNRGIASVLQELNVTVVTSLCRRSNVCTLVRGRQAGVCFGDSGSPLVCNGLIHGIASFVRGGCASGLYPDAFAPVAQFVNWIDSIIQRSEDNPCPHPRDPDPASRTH
Source text: as §1

Matriptase = molecular target: T6, Matriptase (Homo sapiens, UniProt Q9Y5Y6); experiment: Matriptase inhibition; details: Matriptase; read-out: IC50 MAT
T6 sequence (Q9Y5Y6 1-855): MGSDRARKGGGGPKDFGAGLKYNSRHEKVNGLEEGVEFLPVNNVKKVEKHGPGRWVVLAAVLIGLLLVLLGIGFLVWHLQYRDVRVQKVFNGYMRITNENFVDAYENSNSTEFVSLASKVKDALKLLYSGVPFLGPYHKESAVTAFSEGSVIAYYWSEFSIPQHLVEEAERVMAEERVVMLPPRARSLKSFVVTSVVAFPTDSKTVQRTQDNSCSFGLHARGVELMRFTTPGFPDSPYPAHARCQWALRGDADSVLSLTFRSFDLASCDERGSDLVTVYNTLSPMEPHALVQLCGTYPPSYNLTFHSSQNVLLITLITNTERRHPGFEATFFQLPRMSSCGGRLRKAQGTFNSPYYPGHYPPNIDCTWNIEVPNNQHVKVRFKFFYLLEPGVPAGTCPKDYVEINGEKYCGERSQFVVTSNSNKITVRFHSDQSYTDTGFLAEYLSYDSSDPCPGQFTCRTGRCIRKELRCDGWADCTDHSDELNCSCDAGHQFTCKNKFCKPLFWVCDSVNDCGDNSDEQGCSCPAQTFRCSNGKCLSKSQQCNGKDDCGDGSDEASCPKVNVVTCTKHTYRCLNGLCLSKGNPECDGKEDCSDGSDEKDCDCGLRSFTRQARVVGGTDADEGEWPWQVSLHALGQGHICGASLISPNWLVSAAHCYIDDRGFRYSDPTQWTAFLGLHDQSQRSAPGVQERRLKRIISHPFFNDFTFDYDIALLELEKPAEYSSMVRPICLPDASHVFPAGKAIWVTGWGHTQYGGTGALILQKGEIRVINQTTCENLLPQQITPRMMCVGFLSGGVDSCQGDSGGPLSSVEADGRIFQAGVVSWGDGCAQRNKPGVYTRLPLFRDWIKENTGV

T1 sequence (Q9Y5K2 31-254): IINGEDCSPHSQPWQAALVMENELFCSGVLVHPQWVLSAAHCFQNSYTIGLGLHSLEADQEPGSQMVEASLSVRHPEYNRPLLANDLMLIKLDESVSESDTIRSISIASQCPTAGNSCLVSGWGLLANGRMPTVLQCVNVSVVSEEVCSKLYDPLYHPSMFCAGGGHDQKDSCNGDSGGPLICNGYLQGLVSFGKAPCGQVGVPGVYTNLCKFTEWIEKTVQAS

| Compound | IC50 (KLK4 [1]) | kapp KLK4 (KLK4 [2]) | Irreversible (KLK4) (KLK4 [2]) | IC50 (uPA (recombinant)) | IC50 (Plasmine (human plasma)) | IC50 (PlasmaKLK (human plasma)) | IC50 [3] | IC50 (Matriptase) |
| --- | --- | --- | --- | --- | --- | --- | --- | --- |
| COCCOCCOC(=O)NC(c1ccc(NC(=N)N)cc1)P(=O)(Oc1ccccc1)Oc1ccccc1.O=C(O)C(F)(F)F (stereo not shown) [Compound 28, 2-(2-methoxyethoxy)ethyl((diphenoxyphosphoryl)(4-guanidinophenyl)methyl) carbamate 2,2,2-trifluoroacetate] | < 0.1 µM | 34000 M⁻¹ s⁻¹ | Yes/ | 10 to 250 µM | 10 to 250 µM | 10 to 250 µM | > 250 µM | 2.5 to 10 µM |
| N=C(N)Nc1ccc(C(NC(=O)OCCOc2ccccc2)P(=O)(Oc2ccccc2)Oc2ccccc2)cc1.O=C(O)C(F)(F)F (stereo not shown) [Compound 30, 2-phenoxyethyl((diphenoxyphosphoryl)(4-guanidinophenyl)methyl)carbamate 2,2,2-trifluoroacetate] | < 0.1 µM | 15000 M⁻¹ s⁻¹ | Yes/ | 2.5 to 10 µM | 10 to 250 µM | > 250 µM | > 250 µM | 2.5 to 10 µM |
